Experimental data taken from paper PMC3917258, “6-Bromoisatin Found in Muricid Mollusc Extracts Inhibits Colon Cancer Cell Proliferation and Induces Apoptosis, Preventing Early Stage Tumor Formation in a Colorectal Cancer Rodent Model” (Marine Drugs, 2013).
Several values for one entry are separate records, joined by “and”; a condition that tells them apart may be missing. Identical values can stand only once.

Legend:
Format in all cases: cell-based, human
HT29 cells [1] = experiment: MTT cell viability assay; conditions: for reduction of cell viability: relative to DMSO control, 12 h
Description: All media and chemicals were purchased from Sigma Aldrich (Castle Hill, NSW, Australia) unless otherwise stated. HT29 human colorectal cancer cell line (passage no. 36-42) were cultured (37 °C and 5% CO2) in Dulbecco’s Modified Eagle’s Medium (DMEM) supplemented with 4500 mg/L L-glutamine, 10% FBS, 100 U/mL Penicillin/Streptomycin and 1% Non-essential Amino Acid (100×), until the cells reached 70% confluence. The cells were harvested from flasks by trypsinization (1× Trypsin-EDTA) and were seeded (20,000 cells/well) into clear 96-well plates (Costar®, Mt Martha, VIC, Australia) for measurement of cell viability and white (opaque) 96-well plates (Interpath, Heidelberg West, VIC, Australia) for determination of apoptosis and necrosis. HT29 cells were incubated for 48 h, then the media was removed and the cells were washed with PBS. […] 1% DMSO controls were also included on each plate. Staurosporine (5 µM) for apoptosis and lysis solution (5 μL/well, Promega, Alexandria, NSW, Australia) for necrosis were added to the white plates in triplicate, as positive controls. All cells were treated for 12 h. Morphological changes in the cells were observed on an Olympus CK2 inverted optical microscope (×400 magnification) 12 h after treatment. To measure cell viability, the MTT assay was applied, which measures the reduction of MTT tetrazolium salt to formazan, as previously described. To measure necrosis and apoptosis, CytoTox-ONE Homogeneous Membrane Integrity Assay reagent (Promega) and Caspase-Glo 3/7® assay (Promega) were applied respectively, according to our previous study. These assays were all repeated in triplicate on three separate occasions (n = 3).

HT29 cells [2] = experiment: Light microscopy of cell morphology (apoptosis); conditions: 12 h
Description: The cells were harvested from flasks by trypsinization (1× Trypsin-EDTA) and were seeded (20,000 cells/well) into clear 96-well plates (Costar®, Mt Martha, VIC, Australia) for measurement of cell viability and white (opaque) 96-well plates (Interpath, Heidelberg West, VIC, Australia) for determination of apoptosis and necrosis. HT29 cells were incubated for 48 h, then the media was removed and the cells were washed with PBS. To treat the cells, synthetic 6-bromoisatin was dissolved in 100% dimethylsulphoxide (DMSO) then diluted in media and added to the cells at a range of concentrations from 0.1 to 0.01 mg/mL, in triplicate (final DMSO concentration of 1%). 1% DMSO controls were also included on each plate. Staurosporine (5 µM) for apoptosis and lysis solution (5 μL/well, Promega, Alexandria, NSW, Australia) for necrosis were added to the white plates in triplicate, as positive controls. All cells were treated for 12 h. Morphological changes in the cells were observed on an Olympus CK2 inverted optical microscope (×400 magnification) 12 h after treatment. To measure cell viability, the MTT assay was applied, which measures the reduction of MTT tetrazolium salt to formazan, as previously described. To measure necrosis and apoptosis, CytoTox-ONE Homogeneous Membrane Integrity Assay reagent (Promega) and Caspase-Glo 3/7® assay (Promega) were applied respectively, according to our previous study. These assays were all repeated in triplicate on three separate occasions (n = 3).

HT29 cells [3] = experiment: LDH release (CytoTox-ONE membrane integrity, necrosis); conditions: any concentration, in comparison with DMSO control, 12 h
Description: All media and chemicals were purchased from Sigma Aldrich (Castle Hill, NSW, Australia) unless otherwise stated. HT29 human colorectal cancer cell line (passage no. 36-42) were cultured (37 °C and 5% CO2) in Dulbecco’s Modified Eagle’s Medium (DMEM) supplemented with 4500 mg/L L-glutamine, 10% FBS, 100 U/mL Penicillin/Streptomycin and 1% Non-essential Amino Acid (100×), until the cells reached 70% confluence. The cells were harvested from flasks by trypsinization (1× Trypsin-EDTA) and were seeded (20,000 cells/well) into clear 96-well plates (Costar®, Mt Martha, VIC, Australia) for measurement of cell viability and white (opaque) 96-well plates (Interpath, Heidelberg West, VIC, Australia) for determination of apoptosis and necrosis. HT29 cells were incubated for 48 h, then the media was removed and the cells were washed with PBS. To treat the cells, synthetic 6-bromoisatin was dissolved in 100% dimethylsulphoxide (DMSO) then diluted in media and added to the cells at a range of concentrations from 0.1 to 0.01 mg/mL, in triplicate (final DMSO concentration of 1%). 1% DMSO controls were also included on each plate. Staurosporine (5 µM) for apoptosis and lysis solution (5 μL/well, Promega, Alexandria, NSW, Australia) for necrosis were added to the white plates in triplicate, as positive controls. All cells were treated for 12 h. […]

SMILES: O=C1Nc2cc(Br)ccc2C1=O [6-bromoisatin, 6-Bromoindole-2,3-dione]
- reduction of cell viability (HT29 cells [1]; 0.01 mg/mL): no significant reduction
- reduction of cell viability (HT29 cells [1]; 0.025 mg/mL): 26%
- reduction of cell viability (HT29 cells [1]; 0.05 mg/mL): 53%
- reduction of cell viability (HT29 cells [1]; 1 mg/mL): 64%
- IC50 (HT29 cells [1]; Homo sapiens, HT-29, HT29 cells, MTT, 12 h treatment, 1% DMSO): 223 µM and 50 µg/mL
- cell morphology (HT29 cells [2]; 112 μM): morphological alterations, such as chromatin condensation, characteristic of the apoptotic process
- cell morphology (HT29 cells [2]; 223 μM): morphological alterations, such as chromatin condensation, characteristic of the apoptotic process
- cell morphology (HT29 cells [2]; 446 μM, in lower numbers than the two other doses): Apoptotic cells were also observed
- level of lactate dehydrogenase (LDH) (HT29 cells [3]): No increase
